The results in this text go back to patent publication US10738093B2, “Discovery of cationic nonribosomal peptides as Gram-negative antibiotics through global genome mining” (The Hong Kong University of Science and Technology, priority 2018, dated 2020).

Test [1] has as its system Escherichia coli ATCC 25922. The test can be described thus: microbe, parasite or virus in culture. It counts as cell-based. The conditions noted are these: ATCC 25922. On the procedure:
(§1) Minimum inhibitory concentration (MIC) was determined by broth microdilution according to CLSI guidelines. The test medium for most species was Mueller-Hinton broth (MHB). Bacteria were grown overnight to early stationary phase and adjusted in MHB to 5.0×10^5 colony-forming units per mL (c.f.u./mL) in the wells of 96-well microtiter plates, mixed with varying concentrations of test compounds and incubated at 37° C. for 24 h. […] MHBs containing 10% fetal bovine serum (Gibco), 21 mM MgCl, or 1.0 mg/ml LPS (lipopolysaccharides from Escherichia coli O55:B5, Sigma-Aldrich) were used to test their inhibitory effects.

The subject of a further test is Acinetobacter baumannii. It counts as cell-based. On the procedure: as §1
For a further test, the system named is Bacillus subtilis 168. The class given is cell-based. The conditions noted are these: 168. On the procedure: as §1
For a further test, the system named is Candida albicans. It counts as cell-based. On the procedure: as §1
For test [2], the system named is Enterobacter cloacae NRRL-B-413. It counts as cell-based. Particulars: NRRL-B-413. On the procedure: as §1
Test [3] relates to Klebsiella pneumoniae NRRL-B-408. It counts as cell-based. Particulars: NRRL-B-408. On the procedure:
as §1

The subject of test [4] is Methicillin-resistant Staphylococcus aureus ATCC 43300. The class given is cell-based. On the procedure: as §1
Test [5] deals with Pseudomonas aeruginosa PAO1. It counts as cell-based. Particulars: PAO1. On the procedure: as §1
The test system of the next test is E. cloacae NRRL-B-425. The class given is cell-based, Enterobacter cloacae. Particulars: NRRL-B-425. On the procedure:
as §1

The next test concerns E. coli Top10. The test is described as follows: Bacterial growth kinetics. It counts as cell-based, Escherichia coli. The conditions noted are these: E. coli cells exposed to compound. On the procedure: A fresh single colony of E. coli Top10 was inoculated into MHB (5 mL) and grown with shaking at 225 rpm overnight. The bacteria were diluted to 1×10^5 c.f.u./mL in fresh MHB, grown […] to early log-phase (OD=0.15) and treated with the antibiotics of interest in the wells of a 96-well plate. Final antibiotic concentrations varied from 1×MIC to 8×MIC. The plate was then incubated at 30° C. overnight, with OD 600 measurements taken every 30 seconds.

The subject of the next test is P. aeruginosa PAO1. The test is described as follows: Atomic force microscopy of treated P. aeruginosa. The class given is cell-based, Pseudomonas aeruginosa. On the procedure:
The samples were then centrifuged at 8000 g for 10 min at 4° C., and the pellet was washed twice in 100 lpL of apyrogenic water. The bacteria resuspended in 50 μL of apyrogenic water were applied to mica disks and dried overnight at 28° C. before imaging. Atomic force micrographs were recorded on a Veeco Mulitmode AFM with NanoScope III controller operating in contact mode. The data were analyzed with NanoScope Analysis software v.1.40 (Veeco, USA). Scans were acquired at 25° C. at the rates of 1.0 Hz and 256 samples per line resolution. Downstream image processing and analysis were performed using NanoScope software (Bruker). Height images were flattened to compensate for cell curvature, and topographical sections were used to generate two-dimensional reconstructions of surface texture.

Structures are written as SMILES. In brackets after ≈: the same amount, converted by molar mass. Positions of bridges follow the written chain, without caps; N, C: chain ends. Non-standard residues stand in square brackets, D forms with d. Residues, ends and D or L forms follow the SMILES beside them. ξ: configuration not given here. *: point of attachment. Hexanoyl(4ξ-Me) = CCC(C)CCC(=O)*; dOrn = NCCC[C@@H](N)C(=O)O; Orn = NCCC[C@H](N)C(=O)O

On to `CCC(C)CCC(=O)N[C@H](CC(N)=O)C(=O)N[C@H](Cc1ccc(O)cc1)C(=O)N[C@H](Cc1c[nH]c2ccccc12)C(=O)N[C@H](CCCN)C(=O)N[C@@H](CCCN)C(=O)NCC(=O)N[C@H](CCCN)C(=O)N[C@@H](Cc1c[nH]c2ccccc12)C(=O)N[C@@H]1C(=O)N[C@@H]([C@@H](C)CC)C(=O)NCC(=O)N[C@H](CO)C(=O)O[C@@H]1C` (stereo partly drawn) [Compound 1, 4-Methyl-Hexanoyl-D-Asn-D-Tyr-D-Trp-D-Orn-Orn-Gly-D-Orn-Trp-Thr-Ile-Gly-Ser (cyclized via lactone formation between Thr and the C-terminus)] ({Hexanoyl(4ξ-Me)}-[dN][dY][dW][dOrn][Orn]G[dOrn]WTIG[dS]; ester 9-C), for which the MIC was 2 µg/mL (≈ 1.32 µM) in test [1]; 16 µg/mL (≈ 10.5 µM) with Acinetobacter baumannii; 32 µg/mL (≈ 21.1 µM) with Bacillus subtilis 168; greater than 64 µg/mL in the test with Candida albicans; 2 µg/mL (≈ 1.32 µM) in [2]; 2 µg/mL (≈ 1.32 µM) in test [3]. Moreover, the MIC in test [4] (ATCC 43300) was greater than 64 µg/mL; in [5], 1 µg/mL (≈ 0.658 µM); in the test with E. cloacae NRRL-B-425, 2 µg/mL (≈ 1.32 µM). Further, the “MIC Ec” value in test [1] stood at 2 µg/mL (≈ 1.32 µM). Besides, the “MIC Ab” value with Acinetobacter baumannii came out at 16 µg/mL (≈ 10.5 µM). In addition, the “MIC Bs” value in the test on Bacillus subtilis 168 was 32 µg/mL (≈ 21.1 µM). The “MIC Ca” value against Candida albicans (Table 2, Candida albicans) is “ND (ND >64 μg/ml)”. Also, in [2], the “MIC En” value amounted to 2 µg/mL (≈ 1.32 µM). For the same compound, the “MIC MRSA” value in test [4] (Table 2, Methicillin-resistant Staphylococcus aureus ATCC 43300) was “ND (ND >64 μg/ml)”. The “MIC Pa” value in test [5] is 1 µg/mL (≈ 0.658 µM). In addition, the “time of growth at a reduced rate before steady decrease in cell count” value with E. coli Top10 was found to be 30 min. In addition, the “cell morphology by AFM” value in the test with P. aeruginosa PAO1 is “lost their regular rod-like shape and became lumpy and rugged”.
